Laboratory results taken from patent publication US5312816A, “Method of combatting osteoporosis in mammalian subjects, utilizing organic boron compounds” (priority 1993, dated 1994).
Counter-ions that a name gives are not always drawn.

Experiments:
Cathepsin D [1] = target: T1, Cathepsin D (Mus musculus, UniProt P18242); test: Mouse hepatic lysosomal cathepsin D activity; format: biochemical
T1 construct: azocasein assay pH 5.0
Text: (§1) 1. Cf1 male mouse hepatic 10% homogenates in 0.25M sucrose+0.001MEDTA,pH 7.2.
(§2) Lysosomal Enzymes - free and total [triton X-100].
(§3) 2. Acid Cathepsin D -azocasein-pH 5.0, hydrolytic azo-peptide produce 366 nm.
Cathepsin azo casein activity -

Acid phosphatase [2] = test: Mouse hepatic lysosomal acid phosphatase activity; format: biochemical; details: mouse hepatic, 60 min incubation
Text: as §1, §2
(§4) 1. Acid phosphatase -beta glycerol-3-phosphate, pH 5.0, released IP 720 nm.
Acid phosphatase activity -

Aryl sulphatase [3] = test: Mouse macrophage aryl sulphatase activity; format: cell-based; details: read-out: Aryl Sulphatase IC50, 60 min incubation
Acid phosphatase [4] = test: Human osteoporosis fibroblasts acid phosphatase activity; format: cell-based; details: read-out: Acid Phosphatase IC50; Table X; human osteoporosis fibroblasts
Text: as §4

Elastase [5] = test: Mouse macrophage elastase activity; format: cell-based
Cathepsin D [6] = target: T2, Cathepsin D (Homo sapiens, UniProt P07339); test: Human osteoporosis fibroblasts cathepsin D (azo-casein) activity; format: cell-based; details: read-out: Cathepsin D IC50; Table X; human osteoporosis fibroblasts, DMEM +10% FCS + P/S
T2 construct: azocasein assay pH 5.0
Text: Osteoporosis Human Fibroblast-CRL-1140, Be SA1

5'-lipoxygenase = target: T3, 5'-lipoxygenase (Mus musculus, UniProt P48999); test: Mouse hepatic 5'-lipoxygenase activity; format: biochemical
T3 construct: Cf1 male mouse hepatic 10% homogenates; from tissue; host or cells: CF1 male mouse liver, 10% homogenate
T3 sequence (P48999 1-674): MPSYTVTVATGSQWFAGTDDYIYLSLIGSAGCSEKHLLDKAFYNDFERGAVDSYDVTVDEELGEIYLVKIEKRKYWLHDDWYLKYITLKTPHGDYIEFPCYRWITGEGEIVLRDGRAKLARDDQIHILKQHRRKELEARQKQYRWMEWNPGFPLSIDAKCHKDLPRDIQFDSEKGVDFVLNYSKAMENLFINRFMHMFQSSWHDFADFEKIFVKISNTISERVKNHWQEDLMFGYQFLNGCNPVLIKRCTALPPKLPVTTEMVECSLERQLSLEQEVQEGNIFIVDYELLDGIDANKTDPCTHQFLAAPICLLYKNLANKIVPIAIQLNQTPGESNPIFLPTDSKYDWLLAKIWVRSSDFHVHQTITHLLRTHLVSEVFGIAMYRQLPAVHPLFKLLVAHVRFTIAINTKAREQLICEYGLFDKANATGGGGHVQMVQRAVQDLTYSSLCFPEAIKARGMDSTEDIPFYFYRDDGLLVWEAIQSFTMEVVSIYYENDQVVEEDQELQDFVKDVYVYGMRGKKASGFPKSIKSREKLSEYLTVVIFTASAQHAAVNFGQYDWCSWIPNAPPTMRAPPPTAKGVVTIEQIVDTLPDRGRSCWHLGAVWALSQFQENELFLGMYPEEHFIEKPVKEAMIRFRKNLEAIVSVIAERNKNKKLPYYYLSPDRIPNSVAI
Text: as §1
5'-lipoxygenase Mylari, B.L., et al, J. Med.

Aryl sulphatase [7] = test: Human osteoporosis fibroblasts aryl sulphatase activity; format: cell-based; details: read-out: Aryl Sulphatase IC50; Table X; human osteoporosis fibroblasts
Text: (§5) 3. Aryl sulphatase- p-nitrocatechol sulfate, pH
(§6) 5. 8 p-nitro-catechol product 510 nm.

Sprague Dawley Rats = test: Anti-inflammatory activity in Sprague Dawley rats; format: in vivo; details: Table IV; 8 mg/kg I.P.
Cathepsin = test: Human leukocyte cathepsin; format: cell-based; details: read-out: Cathepsin IC50; Table XII; human leukocytes, 60 min incubation
Text: 5. Human peripheral leukocytes, RPMI-1788
as §3

Acid phosphatase [8] = test: Mouse macrophage acid phosphatase activity; format: cell-based
Cf1 male mice [9] = test: Writhing reflex, 0.6% acetic acid; format: in vivo; parameters: response vs control in vivo: dose or concentration left out as unconfirmed; details: Mus musculus, ip
Trypsin [10] = test: Mouse macrophage trypsin (BAEE) activity; format: cell-based
[11] = test system: Prostaglandin cyclooxygenase; test: Human osteoporosis fibroblasts prostaglandin cyclooxygenase activity; format: cell-based; details: read-out: Prostaglandin Cyclooxygense IC50, Table XI, 60 min incubation
Elastase [12] = test: Human osteoporosis fibroblasts elastase activity; format: cell-based; details: read-out: Elastase IC50; Table XI; human osteoporosis fibroblasts, 60 min incubation
Text: (§7) 2. Elastase- N-succinyl-L-alanyl-L-alanine-p-nitroanilide, pH 8.0, p-nitro anilide 410 nm.

Trypsin [13] = test: Human osteoporosis fibroblasts trypsin (BAEE) activity; format: cell-based; details: read-out: Trypsin BAEE IC50; Table XI; human osteoporosis fibroblasts, 60 min incubation
Text: (§8) 1. Trypsin- N-benzoyl-L-arginine ethyl ester pH 8.0, hydrolytic product 253 nm.

[14] = target: Clostridium histolyticum Collagenase Type II; test: Commercial collagenase type II; format: biochemical; details: Table IX; commercial enzyme preparation
Text: (§9) 4. Collagenase II, Clostridium histolyticum, cartilage collagen.

[15] = test system: Prostaglandin cyclooxygenase; test: Mouse macrophage prostaglandin cyclooxygenase activity; format: cell-based
Text: (§10) 3. Mouse macrophages J774A.1 BALB/c
(§11) Prostaglandin synthetase purified beef seminal vesicle ^3 H arachidonic acid (86.2 Ci/mmol), tlc separation.

Cf1 male mice [16] = test: Anti-inflammatory screen, Winter's test, 2% carrageenan hind foot; format: in vivo; details: Table XIV; unit inferred; unit assumed
Experimental: Anti-inflammatory Screen- Cf1 - male mice-Winter's Test 2% carrageenan S.C. plantar surface of hind foot, drugs administered @8 or 10 mg/kg I.P. 2X
Winter, C.A., et al, Proc. Soc.

Trypsin [17] = test: Mouse hepatic trypsin activity; format: biochemical; details: 60 min incubation
Text: as §1, §8

[18] = target: T4, Porcine Pancreatic Elastase (Sus scrofa, UniProt P00772); test: Porcine pancreatic elastase activity in vitro; format: biochemical; details: Table IX; commercial enzyme preparation
T4 construct: purchased; host or cells: porcine pancreas
Text: as §7

Commercial Collagenase = test: Commercial collagenase (type not stated); format: biochemical; details: Table XVI; 60 min incubation
Text: (§12) 3. Collagenase I, Clostridium histolyticum, bone, skin, tendon, blood vessel, dentine, GI. substrate: rat collagen, N-[propionate-2-3-^3 H] propionylated measured as dpm released.
as §9

Pg. cyclooxygenase = target: T5, Pg. cyclooxygenase (Sus scrofa, UniProt A0A287ANF9); test: Porcine seminal vesicles Pg. cyclooxygenase; format: biochemical
T5 construct: Porcine Seminal; from tissue; the methods section prints beef seminal vesicle

Elastase [19] = test: Mouse hepatic elastase activity; format: biochemical; details: Table VI, 60 min incubation
Text: as §1, §7
Elastase activity - in vitro

Prostaglandin synthetase = target: T6, Prostaglandin synthetase (Bos taurus, UniProt O62664); test: Prostaglandin synthetase (cyclooxygenase), purified beef seminal vesicle; format: biochemical; details: Table IX; commercial enzyme preparation; read-out: Beef Prostaglandin Cyclooxygenase IC50
T6 construct: Prostaglandin synthetase purified beef seminal vesicle; from tissue
T6 sequence (O62664 25-600): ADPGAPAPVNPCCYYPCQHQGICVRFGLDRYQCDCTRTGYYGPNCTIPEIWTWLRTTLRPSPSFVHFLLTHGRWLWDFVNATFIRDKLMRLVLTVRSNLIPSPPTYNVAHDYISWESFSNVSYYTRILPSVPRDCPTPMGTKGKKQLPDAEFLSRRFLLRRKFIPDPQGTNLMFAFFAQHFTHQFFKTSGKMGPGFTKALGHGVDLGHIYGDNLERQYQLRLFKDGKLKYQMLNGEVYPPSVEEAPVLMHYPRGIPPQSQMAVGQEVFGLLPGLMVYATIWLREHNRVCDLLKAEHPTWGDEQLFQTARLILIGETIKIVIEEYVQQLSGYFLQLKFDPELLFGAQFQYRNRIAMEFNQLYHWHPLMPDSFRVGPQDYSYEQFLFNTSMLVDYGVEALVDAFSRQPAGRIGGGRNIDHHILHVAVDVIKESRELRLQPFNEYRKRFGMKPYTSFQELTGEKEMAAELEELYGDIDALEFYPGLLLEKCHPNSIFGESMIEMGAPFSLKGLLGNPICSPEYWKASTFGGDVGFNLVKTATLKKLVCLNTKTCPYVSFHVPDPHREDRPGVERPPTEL
Text: as §11

Cf1 male mice [20] = test: Writhing reflex, 0.6% acetic acid; format: in vivo; details: Table XIV; unit inferred; unit assumed
Experimental: Writhing reflex- Cf1 -male mice- 0.6% acetic acid I.P. drugs administered @20 mg/kg/ I.P. 20 min. later - the # of stretches/10 min.
Hendershot, L.C., et al, J.

Cf1 male mice [21] = test: Hot plate tail flick test; format: in vivo; details: Table XIV; unit not given
Cathepsin D [22] = target: T1, Cathepsin D; test: Mouse macrophage cathepsin D activity; format: cell-based; details: 60 min incubation
Text: as §10, §3

[23] = target: Clostridium histolyticum Collagenase Type I; test: Commercial collagenase type I; format: biochemical; details: Table IX; commercial enzyme preparation
Text: as §12

Aryl sulphatase [24] = test: Mouse hepatic lysosomal aryl sulphatase activity; format: biochemical; details: Table XV, 60 min incubation
Text: as §1, §2, §5, §6

[25] = test system: urinary excretion of calcium, magnesium, phosphorus; details: in the diet at 3 mg/day; cited from earlier work

T1 sequence (P18242 65-410): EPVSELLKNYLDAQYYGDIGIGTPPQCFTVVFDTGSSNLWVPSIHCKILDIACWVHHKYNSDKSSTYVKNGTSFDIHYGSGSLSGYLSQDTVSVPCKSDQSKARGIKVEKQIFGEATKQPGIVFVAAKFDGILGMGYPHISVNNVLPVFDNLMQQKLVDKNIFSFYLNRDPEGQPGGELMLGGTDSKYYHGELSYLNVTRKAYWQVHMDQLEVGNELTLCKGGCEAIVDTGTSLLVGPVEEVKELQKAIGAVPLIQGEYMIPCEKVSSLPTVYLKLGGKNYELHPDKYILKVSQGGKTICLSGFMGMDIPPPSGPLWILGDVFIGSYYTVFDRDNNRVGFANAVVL
T4 sequence (P00772 27-266): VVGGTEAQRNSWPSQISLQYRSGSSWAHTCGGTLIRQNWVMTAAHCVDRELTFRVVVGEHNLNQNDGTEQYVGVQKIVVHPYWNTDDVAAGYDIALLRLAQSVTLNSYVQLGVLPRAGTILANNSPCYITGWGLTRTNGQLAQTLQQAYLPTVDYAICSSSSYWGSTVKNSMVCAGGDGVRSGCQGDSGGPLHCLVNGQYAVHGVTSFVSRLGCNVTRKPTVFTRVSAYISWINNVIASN
T5 sequence (A0A287ANF9 25-600): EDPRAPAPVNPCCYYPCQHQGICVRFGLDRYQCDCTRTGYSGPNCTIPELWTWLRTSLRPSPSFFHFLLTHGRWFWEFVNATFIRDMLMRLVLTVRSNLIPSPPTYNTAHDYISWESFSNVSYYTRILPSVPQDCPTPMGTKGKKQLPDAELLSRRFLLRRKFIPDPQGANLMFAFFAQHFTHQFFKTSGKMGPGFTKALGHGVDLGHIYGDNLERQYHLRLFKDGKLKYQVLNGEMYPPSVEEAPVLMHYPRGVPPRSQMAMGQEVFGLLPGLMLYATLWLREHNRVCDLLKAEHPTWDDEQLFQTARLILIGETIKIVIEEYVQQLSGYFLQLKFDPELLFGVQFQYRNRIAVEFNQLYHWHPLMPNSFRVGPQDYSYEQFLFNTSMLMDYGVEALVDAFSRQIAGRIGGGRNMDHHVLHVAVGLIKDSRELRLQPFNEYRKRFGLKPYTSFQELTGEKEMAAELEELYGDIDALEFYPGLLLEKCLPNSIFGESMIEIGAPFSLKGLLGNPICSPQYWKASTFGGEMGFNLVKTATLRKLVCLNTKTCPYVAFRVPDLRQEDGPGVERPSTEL
T2 sequence (P07339 65-412): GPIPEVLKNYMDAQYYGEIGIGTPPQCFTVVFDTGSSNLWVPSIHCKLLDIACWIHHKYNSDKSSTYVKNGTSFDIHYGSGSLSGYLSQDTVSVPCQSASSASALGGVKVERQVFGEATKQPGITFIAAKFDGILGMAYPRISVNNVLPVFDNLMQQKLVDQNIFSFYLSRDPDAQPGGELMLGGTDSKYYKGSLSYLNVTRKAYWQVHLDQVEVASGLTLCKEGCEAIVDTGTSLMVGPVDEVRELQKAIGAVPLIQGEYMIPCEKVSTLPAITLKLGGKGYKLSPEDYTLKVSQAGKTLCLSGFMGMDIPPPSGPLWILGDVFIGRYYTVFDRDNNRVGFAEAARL

## C[NH+](C)[BH2-]C#N [Compound 10, Dimethylamine-cyanoborane]
Cathepsin D [1]; read-out: Cathepsin D IC50; Table V; mouse hepatic, 60 min incubation
  IC50: 3.2 µM
Acid phosphatase [2]; Table V
  IC50: 8.9 µM
Aryl sulphatase [3]; Table VII, mouse macrophage cultured cells
  IC50: 9 µM
Acid phosphatase [4]
  IC50: 8.7 µM
Elastase [5]; read-out: Elastase IC50; Table VIII; mouse macrophages, 60 min incubation
  IC50: 2530 nM
Cathepsin D [6]
  IC50: 1280 nM
5'-lipoxygenase
  IC50: 22.9 µM
Aryl sulphatase [7]
  IC50: 7.91 µM
Sprague Dawley Rats
  Anti-Inflammatory Activity Sprague Dawley Rats: 61 % Control
Cathepsin
  IC50: 53.8 µM
Acid phosphatase [8]; read-out: Acid Phosphatase IC50; Table VII; mouse macrophage cultured cells, 60 min incubation
  IC50: 1130 nM
Cf1 male mice [9]; read-out: Writhing Reflex Cf1 Mice
  response vs control in vivo: 14.7%
Trypsin [10]; read-out: Trypsin BAEE IC50; Table VIII; mouse macrophages, 60 min incubation
  IC50: 2440 nM
[11]
  IC50: 5.58 µM
Elastase [12]
  IC50: 3.36 µM
Trypsin [13]
  IC50: 6.43 µM
[14]
  IC50: 106 µM
[15]; read-out: Prostaglandin Cyclooxygenase IC50; Table VIII; mouse macrophages, 60 min incubation
  IC50: 5920 nM

## C[NH+](C)[BH2-]C(=O)O [Compound 23, Dimethylamine-carboxyborane, sodium salt]
Cathepsin D [1]; Table V; mouse hepatic, 60 min incubation; read-out: Cathepsin D IC50
  IC50: 3.76 µM
Cathepsin D [1]; Table XV; mouse hepatic, 60 min incubation; read-out: Cathepsin D IC50
  IC50: 7.65 µM
Acid phosphatase [2]; Table V
  IC50: 7.89 µM
Acid phosphatase [2]; Table XV
  IC50: 3.58 µM
Aryl sulphatase [3]; Table XVII, mouse macrophage
  IC50: 1.6 µM
Elastase [5]; Table VIII; mouse macrophages, 60 min incubation; read-out: Elastase IC50
  IC50: 2670 nM
Elastase [5]; Table XVIII; mouse macrophage, 60 min incubation; read-out: Elastase IC50
  IC50: 6350 nM
Cf1 male mice [16]
  Anti-Inflammation Cf1 Mice: 68.5%
Trypsin [17]; Table VI, mouse hepatic, read-out: Trypsin IC50
  IC50: 0.83 µM
Trypsin [17]; Table XVI, read-out: Mouse Hepatic Trypsin IC50
  IC50: 9.95 µM
[18]
  IC50: 37.3 µM
Commercial Collagenase
  IC50: 506 µM
Pg. cyclooxygenase
  IC50: 3.1 µM
Elastase [19]
  IC50: 25.9 µM
Sprague Dawley Rats
  Anti-Inflammatory Activity Sprague Dawley Rats: 55 % Control
Acid phosphatase [8]; Table VII; mouse macrophage cultured cells, 60 min incubation; read-out: Acid Phosphatase IC50
  IC50: 4750 nM
Acid phosphatase [8]; Table XVII; mouse macrophage, 60 min incubation; read-out: Acid Phosphatase IC50
  IC50: 1420 nM
Cf1 male mice [9]; Table IV
  response vs control in vivo at 20 mg/kg: 2%
Trypsin [10]; Table VIII; mouse macrophages, 60 min incubation; read-out: Trypsin BAEE IC50
  IC50: 3100 nM
Trypsin [10]; Table XVIII; mouse macrophage, 60 min incubation; read-out: Trypsin BAEE IC50
  IC50: 2210 nM
Prostaglandin synthetase
  IC50: 3.25 µM
Cf1 male mice [20]
  Writhing Reflex Mice: 70.4%
Cf1 male mice [21]
  Tail Flick Mice: 156
[15]; Table VIII; mouse macrophages, 60 min incubation; read-out: Prostaglandin Cyclooxygenase IC50
  IC50: 2910 nM
[15]; Table XVIII; mouse macrophage, 60 min incubation; read-out: Prostaglandin Cyclooxygenase IC50
  IC50: 2070 nM
Cathepsin D [22]; Table VII, mouse macrophage cultured cells, DMEM +10% FCS +P/S, read-out: Cathepsin D IC50
  IC50: 6.39 µM
Cathepsin D [22]; Table XVII, mouse macrophage, read-out: Cathepsin D pH 5.0 IC50
  IC50: 2.28 µM
[23]
  IC50: 667 µM
Aryl sulphatase [24]
  IC50: 2830 nM

## O.O.O.O.O.O.O.O.O.O.[Na+].[Na+].[O-]B1OB2OB([O-])OB(O1)O2 [sodium borate]
[25]
  urinary excretion of calcium, magnesium and perhaps phosphorus: blocks the urinary excretion of calcium, magnesium and perhaps phosphorus
